According to US5527828A, “Spin trap nitronyl hindered phenols” (priority 1995, dated 1996):
Read-outs that look alike come from different tables or passages of the source. Values belong to the molecule of their own block, whether it stands above or below them.

Legend:
rat liver microsomes [1] = settings: read-out: Inhibitor Concentration of 50% Inhibition (IC50); RLM (II); LPO initiated by NADPH/cytochrome-P450 metabolism of CCl4; average of 5 experiments; interpolated
rat liver microsomes [2] = assay: Inhibition of lipid peroxidation (LPO) initiated by tert-butoxyl radicals in rat liver microsomes, TBA test for MDA (Example 1); settings: for relative efficiency normalized to 1.0 for PBN: from IC50 data of Example 1; for IC50: read-out: Inhibitor Concentration of 50% Inhibition (IC50), RLM (I), LPO initiated by tert-butoxyl radicals, 37° C., one hour, pH 7.4, average of 5 experiments, interpolated, estimated or measured
rat brain microsomes = assay: Inhibition of LPO in rat brain microsomes, TBA test for MDA production (Example 3); format: biochemical; settings: for IC50: rat brain microsomes; for inhibition of LPO in these systems: conclusion in words on the data obtained
Experimental: Similar tests were performed with rat brain microsomes using the TBA test for MDA production as the result of LPO.

rat liver microsomes [3] = tested on: rat liver microsomes
[4] = value in parentheses, read-out: IC50 RBM (III)

Compound: CC(C)(C)[N+]([O-])=Cc1ccccc1 [PBN, α-phenyl t-butyl nitrone, reference compound]
IC50 (rat liver microsomes [1]): 17500 µM | relative efficiency normalized to 1.0 for PBN (rat liver microsomes [2]; rat liver microsomes): 1.0 | IC50 (rat liver microsomes [2]): 9800 µM | IC50 (rat brain microsomes; RBM (III), TBA test for MDA): 1000 µM

Compound: Cc1cc(C(C)(C)C)c(O)c(C(C)(C)C)c1 [BHT, butylated hydroxy toulene, reference compound]
relative efficiency normalized to 1.0 for PBN (rat liver microsomes [2]; rat liver microsomes): 2000 | IC50 (rat liver microsomes [2]): 5.3 µM | IC50 (rat liver microsomes [3]): 55 µM

Compound: CC(C)(C)CC(C)(C)[N+]([O-])=Cc1ccccc1 [OPN, N-tert-octyl C-phenyl nitrone]
IC50 (rat liver microsomes [1]): 6500 µM | relative efficiency normalized to 1.0 for PBN (rat liver microsomes [2]; rat liver microsomes): 24 | IC50 (rat liver microsomes [2]): 462 µM | IC50 (rat brain microsomes; RBM (III), TBA test for MDA): 76 µM

Compound: Cc1c(C)c2c(c(C)c1O)CCC(C)(CCCC(C)CCCC(C)CCCC(C)C)O2 (stereo not drawn) [Tocopherol, α-tocopherol, reference compound]
relative efficiency normalized to 1.0 for PBN (rat liver microsomes [2]; rat liver microsomes): 354 | IC50 (rat liver microsomes [2]): 30 µM

Compound: CC(C)(C)c1cc(C=[N+]([O-])C(C)(C)C)cc(C(C)(C)C)c1O [DBBNP, 2,6-di-tert-butyl-4-(N-tert-butyl) nitronyl phenol]
IC50 (rat liver microsomes [1]): 53 µM | effectiveness as inhibitor of LPO compared with BHT (rat liver microsomes [2]; conclusion in words, taking into account experimental precision): at least as good as BHT and probably better | relative efficiency normalized to 1.0 for PBN (rat liver microsomes [2]; rat liver microsomes): 2466 | better than BHT as an inhibitor of LPO (rat liver microsomes [2]; rat liver microsomes, versus BHT): about 20% | times more effective as an inhibitor of LPO than PBN (rat liver microsomes [2]; rat liver microsomes, versus PBN): about 2000 times | IC50 (rat liver microsomes [2]): 4.3 µM | IC50 (rat brain microsomes; RBM (III), TBA test for MDA): 0.7 µM | inhibition of LPO in these systems (rat brain microsomes): very good inhibitors | IC50 (rat brain microsomes; [4]): 0.7 µM

The next lines start with results.

IC50 (rat liver microsomes [1]): 710 µM | IC50 (rat brain microsomes; RBM (III), TBA test for MDA): 600 µM
Compound: Cc1cc(C=[N+]([O-])C(C)(C)C)cc(C)c1O [DMBNP, 2,6-dimethyl-4-(N-tert-butyl) nitronyl phenol]
relative efficiency normalized to 1.0 for PBN (rat liver microsomes [2]; rat liver microsomes): 46 | IC50 (rat liver microsomes [2]): 230 µM

IC50 (rat liver microsomes [1]): 35 µM | IC50 (rat brain microsomes; RBM (III), TBA test for MDA): 0.3 µM | IC50 (rat brain microsomes; [4]): 0.3 µM
Compound: CC(C)(C)CC(C)(C)[N+]([O-])=Cc1cc(C(C)(C)C)c(O)c(C(C)(C)C)c1 [DBONP, 2,6-di-tert-butyl-4-(N-tert-octyl) nitronyl phenol]
relative efficiency normalized to 1.0 for PBN (rat liver microsomes [2]; rat liver microsomes): 1828 | IC50 (rat liver microsomes [2]): 5.8 µM | inhibition of LPO in these systems (rat brain microsomes): very good inhibitors

IC50 (rat liver microsomes [1]): 60 µM | IC50 (rat brain microsomes; RBM (III), TBA test for MDA): 70 µM
Compound: Cc1cc(C=[N+]([O-])C(C)(C)CC(C)(C)C)cc(C)c1O [DMONP, 2,6-dimethyl-4-(N-tert-octyl) nitronyl phenol]
relative efficiency normalized to 1.0 for PBN (rat liver microsomes [2]; rat liver microsomes): 646 | IC50 (rat liver microsomes [2]): 16.4 µM
